Patent US9113629B2, “4-amino-6-(4-substituted-phenyl)-picolinates and 6-amino-2-(4-substituted-phenyl)-pyrimidine-4-carboxylates and their use as herbicides” (DOW AGROSCIENCES LLC, priority 2013, dated 2015)
Read-outs that look alike come from different tables or passages of the source.

What was measured:
[1] = tested on: Key Broadleaf Weed and Crop Species; assay: Post-emergent Test II herbicidal activity (Table 5); type: in vivo; details: post-emergence, 336 h, 14 days after application; for pest or weed control at 70 g/ha: application rate 70 g ai/ha; for pest or weed control at 140 g/ha: application rate 140 g ai/ha
In short: (§1)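 Test species were raised 7–21 d under greenhouse conditions until reaching the first or second true leaf, sprayed with formulated compound at 187 L/ha, and kept subirrigated to avoid wash-off. Fourteen days later, damage was rated visually on a 0–100% scale against untreated plants.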

[2] = tested on: Key Grass and Sedge Weeds as well as Grass Crops; assay: Post-emergent Test II herbicidal activity (Table 6); type: in vivo; details: post-emergence, 336 h
In short: as §1

[3] = ABUTH: velvetleaf (Abutilon theophrasti), read-out: Visual Growth Reduction (%) 14 Days After Application, ABUTH
[4] = AMARE: redroot pigweed (Amaranthus retroflexus), read-out: Visual Growth Reduction (%) 14 Days After Application, AMARE
[5] = BRSNN: oilseed-rape, canola (Brassica napus), read-out: Visual Growth Reduction (%) 14 Days After Application, BRSNN
[6] = CHEAL: lambsquarters (Chenopodium album), read-out: Visual Growth Reduction (%) 14 Days After Application, CHEAL
[7] = EPHHL: wild poinsettia (Euphorbia heterophylla), read-out: Visual Growth Reduction (%) 14 Days After Application, EPHHL
[8] = HELAN: sunflower (Helianthus annuus), read-out: Visual Growth Reduction (%) 14 Days After Application, HELAN
[9] = VIOTR: wild pansy (Viola tricolor), read-out: Visual Growth Reduction (%) 14 Days After Application, VIOTR
[10] = CYPES: yellow nutsedge (Cyperus esculentus), 70 g ai/ha, read-out: Visual Growth Reduction (%) 14 Days After Application, CYPES
[11] = CYPES: yellow nutsedge (Cyperus esculentus), 140 g ai/ha, read-out: Visual Growth Reduction (%) 14 Days After Application, CYPES
[12] = DIGSA: crabgrass (Digitaria sanguinalis), 70 g ai/ha, read-out: Visual Growth Reduction (%) 14 Days After Application, DIGSA
[13] = DIGSA: crabgrass (Digitaria sanguinalis), 140 g ai/ha, read-out: Visual Growth Reduction (%) 14 Days After Application, DIGSA
[14] = ECHCG: barnyardgrass (Echinochloa crus-galli), 70 g ai/ha, read-out: Visual Growth Reduction (%) 14 Days After Application, ECHCG
[15] = ECHCG: barnyardgrass (Echinochloa crus-galli), 140 g ai/ha, read-out: Visual Growth Reduction (%) 14 Days After Application, ECHCG
[16] = ORYSA: rice (Oryza sativa), crop, 70 g ai/ha, read-out: Visual Growth Reduction (%) 14 Days After Application, ORYSA
[17] = ORYSA: rice (Oryza sativa), crop, 140 g ai/ha, read-out: Visual Growth Reduction (%) 14 Days After Application, ORYSA
[18] = SETFA: giant foxtail (Setaria faberi), 70 g ai/ha, read-out: Visual Growth Reduction (%) 14 Days After Application, SETFA
[19] = SETFA: giant foxtail (Setaria faberi), 140 g ai/ha, read-out: Visual Growth Reduction (%) 14 Days After Application, SETFA
[20] = SORVU: grain sorghum (Sorghum vulgare), 70 g ai/ha, read-out: Visual Growth Reduction (%) 14 Days After Application, SORVU
[21] = SORVU: grain sorghum (Sorghum vulgare), 140 g ai/ha, read-out: Visual Growth Reduction (%) 14 Days After Application, SORVU
[22] = TRZSS (wheat, Triticum aestivum), crop, 70 g ai/ha, read-out: Visual Growth Reduction (%) 14 Days After Application, TRZSS
[23] = TRZSS (wheat, Triticum aestivum), crop, 140 g ai/ha, read-out: Visual Growth Reduction (%) 14 Days After Application, TRZSS
[24] = ZEAMX: maize, corn (Zea mays), crop, 70 g ai/ha, read-out: Visual Growth Reduction (%) 14 Days After Application, ZEAMX
[25] = ZEAMX: maize, corn (Zea mays), crop, 140 g ai/ha, read-out: Visual Growth Reduction (%) 14 Days After Application, ZEAMX

melting point	Structure (SMILES)	pest or weed control at 70 g/ha [1, 3] [%]	pest or weed control at 140 g/ha [1, 3] [%]	pest or weed control at 70 g/ha [1, 4] [%]	pest or weed control at 140 g/ha [1, 4] [%]	pest or weed control at 70 g/ha [1, 5] [%]	pest or weed control at 140 g/ha [1, 5] [%]	pest or weed control at 70 g/ha [1, 6] [%]	pest or weed control at 140 g/ha [1, 6] [%]	pest or weed control at 70 g/ha [1, 7] [%]	pest or weed control at 140 g/ha [1, 7] [%]	pest or weed control at 70 g/ha [1, 8] [%]	pest or weed control at 140 g/ha [1, 8] [%]	pest or weed control at 70 g/ha [1, 9] [%]	pest or weed control at 140 g/ha [1, 9] [%]	pest or weed control at 70 g/ha [2, 10] [%]	pest or weed control at 140 g/ha [2, 11] [%]	pest or weed control at 70 g/ha [2, 12] [%]	pest or weed control at 140 g/ha [2, 13] [%]	pest or weed control at 70 g/ha [2, 14] [%]	further results
163 to 165 °C	COC(=O)c1nc(-c2ccc(Br)cc2F)nc(N)c1OC [Compound 35]	95 to 100	95 to 100	75 to 84	95 to 100	95 to 100	95 to 100	95 to 100	95 to 100	95 to 100	95 to 100	95 to 100	95 to 100	85 to 94	95 to 100	95 to 100	95 to 100	45 to 59	85 to 94	30 to 44	pest or weed control at 140 g/ha [2, 15]: 85 to 94%; pest or weed control at 70 g/ha [2, 16]: 0 to 29%; pest or weed control at 140 g/ha [2, 17]: 0 to 29%; pest or weed control at 70 g/ha [2, 18]: 0 to 29%; pest or weed control at 140 g/ha [2, 19]: 45 to 59%; pest or weed control at 70 g/ha [2, 20]: 45 to 59%; pest or weed control at 140 g/ha [2, 21]: 60 to 74%; pest or weed control at 70 g/ha [2, 22]: 30 to 44%; pest or weed control at 140 g/ha [2, 23]: 45 to 59%; pest or weed control at 70 g/ha [2, 24]: 95 to 100%; pest or weed control at 140 g/ha [2, 25]: 95 to 100%
288 to 293 °C (dec.)	Nc1cc(-c2ccc(I)c(F)c2F)nc(C(=O)O)c1Cl [Compound 38]	95 to 100	95 to 100	85 to 94	95 to 100	95 to 100	95 to 100	85 to 94	95 to 100	95 to 100	95 to 100	75 to 84	85 to 94	95 to 100	95 to 100	–	–	–	–	–	pest or weed control at 70 g/ha ([2]; Triticum aestivum, TRZSS (wheat), application rate 70 g ai/ha, read-out: Visual Growth Reduction (%) 14 Days After Application, TRZSS): 60 to 74%; pest or weed control at 140 g/ha ([2]; Triticum aestivum, TRZSS (wheat), application rate 140 g ai/ha, read-out: Visual Growth Reduction (%) 14 Days After Application, TRZSS): 60 to 74%; pest or weed control at 70 g/ha ([2]; CYPES: yellow nutsedge (Cyperus esculentus), application rate 70 g ai/ha, read-out: Visual Growth Reduction (%) 14 Days After Application, CYPES): 95 to 100%; pest or weed control at 140 g/ha ([2]; CYPES: yellow nutsedge (Cyperus esculentus), application rate 140 g ai/ha, read-out: Visual Growth Reduction (%) 14 Days After Application, CYPES): 95 to 100%; pest or weed control at 70 g/ha ([2]; DIGSA: crabgrass (Digitaria sanguinalis), application rate 70 g ai/ha, read-out: Visual Growth Reduction (%) 14 Days After Application, DIGSA): 75 to 84%; pest or weed control at 140 g/ha ([2]; DIGSA: crabgrass (Digitaria sanguinalis), application rate 140 g ai/ha, read-out: Visual Growth Reduction (%) 14 Days After Application, DIGSA): 75 to 84%; pest or weed control at 70 g/ha ([2]; ECHCG: barnyardgrass (Echinochloa crus-galli), application rate 70 g ai/ha, read-out: Visual Growth Reduction (%) 14 Days After Application, ECHCG): 95 to 100%; pest or weed control at 140 g/ha ([2]; ECHCG: barnyardgrass (Echinochloa crus-galli), application rate 140 g ai/ha, read-out: Visual Growth Reduction (%) 14 Days After Application, ECHCG): 95 to 100%; pest or weed control at 70 g/ha ([2]; ORYSA: rice (Oryza sativa), application rate 70 g ai/ha, read-out: Visual Growth Reduction (%) 14 Days After Application, ORYSA): 0 to 29%; pest or weed control at 140 g/ha ([2]; ORYSA: rice (Oryza sativa), application rate 140 g ai/ha, read-out: Visual Growth Reduction (%) 14 Days After Application, ORYSA): 0 to 29%; pest or weed control at 70 g/ha ([2]; SETFA: giant foxtail (Setaria faberi), application rate 70 g ai/ha, read-out: Visual Growth Reduction (%) 14 Days After Application, SETFA): 95 to 100%; pest or weed control at 140 g/ha ([2]; SETFA: giant foxtail (Setaria faberi), application rate 140 g ai/ha, read-out: Visual Growth Reduction (%) 14 Days After Application, SETFA): 95 to 100%; pest or weed control at 70 g/ha ([2]; SORVU: grain sorghum (Sorghum vulgare), application rate 70 g ai/ha, read-out: Visual Growth Reduction (%) 14 Days After Application, SORVU): 85 to 94%; pest or weed control at 140 g/ha ([2]; SORVU: grain sorghum (Sorghum vulgare), application rate 140 g ai/ha, read-out: Visual Growth Reduction (%) 14 Days After Application, SORVU): 85 to 94%; pest or weed control at 70 g/ha ([2]; ZEAMX: maize, corn (Zea mays), application rate 70 g ai/ha, read-out: Visual Growth Reduction (%) 14 Days After Application, ZEAMX): 85 to 94%; pest or weed control at 140 g/ha ([2]; ZEAMX: maize, corn (Zea mays), application rate 140 g ai/ha, read-out: Visual Growth Reduction (%) 14 Days After Application, ZEAMX): 95 to 100%
155 to 165 °C (dec.)	C#Cc1ccc(-c2nc(N)c(OC)c(C(=O)O)n2)c(F)c1 [Compound 41]	0 to 29	0 to 29	0 to 29	0 to 29	0 to 29	45 to 59	0 to 29	60 to 74	0 to 29	0 to 29	60 to 74	75 to 84	0 to 29	0 to 29	0 to 29	0 to 29	0 to 29	0 to 29	0 to 29	pest or weed control at 140 g/ha [2, 15]: 0 to 29%; pest or weed control at 70 g/ha [2, 16]: 0 to 29%; pest or weed control at 140 g/ha [2, 17]: 0 to 29%; pest or weed control at 70 g/ha [2, 18]: 0 to 29%; pest or weed control at 140 g/ha [2, 19]: 0 to 29%; pest or weed control at 70 g/ha [2, 20]: 0 to 29%; pest or weed control at 140 g/ha [2, 21]: 0 to 29%; pest or weed control at 70 g/ha [2, 22]: 0 to 29%; pest or weed control at 140 g/ha [2, 23]: 0 to 29%; pest or weed control at 70 g/ha [2, 24]: 0 to 29%; pest or weed control at 140 g/ha [2, 25]: 0 to 29%
